Measured values as given in patent US9777266B2, “Methods for efficient, expansive, user-defined DNA mutagenesis” (THE JOHNS HOPKINS UNIVERSITY, priority 2012, dated 2017).

What was measured:
[1] = system: cells bearing wildtype TEM-1; experiment: MIC assay on Mueller Hinton agar, cells bearing TEM-1 without mutation (allele 'none'); assay type: cell-based, E. coli
Experimental: (§1) Selected single base mutations were re-introduced into TEM-1 by site-directed PFunkel mutagenesis on the 20 μL volume scale. The MIC for ampicillin and piperacillin of the mutants was assessed with and without 6 μg/mL tazobactam by spotting 10^4 CFU on Mueller-Hinton agar plates containing 50 μg/mL Spec, 300 μM IPTG, and √2-fold increments of either ampicillin or piperacillin. Plates were incubated at 37° C. for 12 hrs.

[2] = system: cells bearing TEM-1 allele Y105N; experiment: MIC assay on Mueller Hinton agar, TEM-1 allele Y105N; assay type: cell-based, E. coli; conditions: replicates 1-3
Experimental: as §1

[3] = +tazobactam 6 μg/mL, replicates 1-3
[4] = −tazobactam, replicates 1-3, 10^4 CFU/spot, 37° C. for 12 hours

| SMILES | Piperacillin MIC [1, 3] [µg/mL] | Piperacillin MIC [1, 4] [µg/mL] | MIC ampicillin [1, 3] [µg/mL] | MIC ampicillin [1, 4] [µg/mL] | MIC ampicillin ([2]; +tazobactam 6 μg/mL) [µg/mL] | MIC ampicillin ([2]; −tazobactam) [µg/mL] |
| --- | --- | --- | --- | --- | --- | --- |
| CCN1CCN(C(=O)N[C@@H](C(=O)N[C@@H]2C(=O)N3[C@@H]2SC(C)(C)[C@@H]3C(=O)O)c2ccccc2)C(=O)C1=O [Piperacillin, piperacillin] | 1.4 | 2896 |  |  |  |  |
| CC1(C)S[C@@H]2[C@H](NC(=O)[C@H](N)c3ccccc3)C(=O)N2[C@H]1C(=O)O [Ampicillin, ampicillin] |  |  | 22.6 | 8192 | 1448 | 5792 |
